Measurements from ChEMBL document CHEMBL1177805, “AMP-activated protein kinase (AMPK) activators from Myristica fragrans (nutmeg) and their anti-obesity effect” (Bioorg Med Chem Lett, 2010).
Calls of active or inactive are those of the source. No cut-off for these calls is given here.

Molecular target: 5'-AMP-activated protein kinase catalytic subunit alpha-2 (Mus musculus) (UniProt Q8BRK8)
Assay: Activation of AMPK in mouse […] cells at 5 uM by Western blotting
Format: cell-based

5'-AMP-activated protein kinase catalytic subunit alpha-2 (Mus musculus), sequence (Q8BRK8 whole entry): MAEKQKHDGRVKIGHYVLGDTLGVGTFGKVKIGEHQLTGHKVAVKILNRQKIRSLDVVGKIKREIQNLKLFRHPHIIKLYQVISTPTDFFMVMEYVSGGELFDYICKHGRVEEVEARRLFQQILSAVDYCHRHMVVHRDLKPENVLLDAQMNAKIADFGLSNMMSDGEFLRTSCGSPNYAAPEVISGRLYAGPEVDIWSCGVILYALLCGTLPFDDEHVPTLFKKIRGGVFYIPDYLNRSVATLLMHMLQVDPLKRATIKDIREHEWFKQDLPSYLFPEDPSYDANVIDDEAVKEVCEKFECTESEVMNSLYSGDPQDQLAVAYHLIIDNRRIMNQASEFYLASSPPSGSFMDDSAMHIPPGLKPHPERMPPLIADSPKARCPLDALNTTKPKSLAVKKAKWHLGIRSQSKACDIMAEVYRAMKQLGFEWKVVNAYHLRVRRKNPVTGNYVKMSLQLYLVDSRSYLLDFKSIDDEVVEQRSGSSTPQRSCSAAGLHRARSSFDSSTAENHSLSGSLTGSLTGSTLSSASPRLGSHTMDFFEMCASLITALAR

Compound | Activity
COc1cc([C@H]2O[C@@H](c3ccc(O)c(OC)c3)[C@@H](C)[C@H]2C)ccc1O | Active
COc1cc([C@H]2O[C@@H](c3ccc(O)c(OC)c3)[C@H](C)[C@@H]2C)ccc1O | Active
